Source: patent US9066880B2, “Use of dihydrodehydrodiisoeugenol and preparations comprising dihydrodehydrodiisoeugenol” (SYMRISE AG, priority 2010, dated 2015)
One block for each compound: values may come before it.

Legend:
[1] = tested on: 3T3-L1-cells (mouse embryonic fibroblast-like preadipocytes cell line); experiment: Quantification of intracellular lipids (stimulation of adipogenesis), Nile Red; format: cell-based; design: Stimulation of adipogenesis: unit not given here; details: for Stimulation of adipogenesis: applied day −2 to day 2, Nile Red at day 10, vs hormone mix only
Experimental: (§1) 3T3-L1-cells (mouse embryonic fibroblast-like preadipocytes cell line) were propagated in Dulbecco's Modified Eagle Medium (DMEM), enriched with 10% newborn calf serum (CS) at 37° C. and 5% CO2 and seeded in 48-well plates for lipid quantification. After reaching confluence at day −2 the differentiation was induced by changing medium at day 0 to DMEM with 10% fetal calf serum (FCS) containing a hormone mix (HM) of 1 μg/ml insulin, 0.25 μM dexamethasone (Dex) and 0.5 mM 3-isobutyl-1-methylxanthine (IBMX).
Compounds of interest such as compound of formula (I) are applied from day −2 (confluence of the cells) until day 2 using various concentrations. Medium is renewed every other day. At day 2, medium consisting of DMEM, 10% FCS and 1 μg/ml insulin is added. From day 4 on, only DMEM containing 10% FCS is used for further cultivation of cells. At day 10, quantification of the intracellular lipid droplets is performed by addition of the fluorescent dye Nile Red (9-diethylamino-5H-benzo[alpha]phenoxazine-5-one) for 20 minutes at 37° C. and 5% CO2. Fluorescence (RFU) is detected with excitation at 485 nm and emission at 535 nm.
Stimulation of the adipogenesis in the presence of the compounds of interest is calculated according to the following equation:
[formula] wherein • RFU test substance=Relative Fluorescence Units of the wells with test substance and with cells • RFU control=Relative Fluorescence Units of the wells stimulated with hormone mix only. • RFU without cells=Relative Fluorescence Units of the wells containing Nile Red only, without cells.

[2] = tested on: peroxisome proliferator-activated receptor γ2 (PPARγ2); experiment: Real Time-PCR, expression of differentiation marker PPARγ2 in 3T3-L1-cells; format: cell-based, mouse; details: fold induction compared to hormone mix stimulation (set equal to one)
Experimental: as §1, with “12-well” for “48-well”, “gene expression analysis.” for “lipid quantification.”, “−2,” for “−2”, “(IBMX). Compounds of interest such as compound of formula (I) are applied from day −2 (confluence of the cells) until day 2 using various concentrations. Medium is renewed every other day. At day 2, medium consisting of DMEM, 10% FCS and 1 μg/ml insulin is added. From day 4 on, only DMEM containing 10% FCS is used for further cultivation of cells. […]” for “(IBMX).”
(§2) Total RNA from cell culture samples was isolated using RNeasy Total RNA Kits (Qiagen, Hilden; Germany). The RNA concentration and purity was determined photometrically using 260/280 ratios (Biophotometer, Eppendorf, Hamburg, Germany). […] At least three independent experiments were performed with 2 determinations each and the mean value of these was calculated. […] Each sample was analyzed in duplicate employing the universal protocol over 46 cycles. […]

adiponectin = experiment: Real Time-PCR, expression of differentiation marker adiponectin in 3T3-L1-cells; format: cell-based, mouse; details: fold induction compared to hormone mix stimulation (set equal to one)
Experimental: as §1, with “12-well” for “48-well”, “gene expression analysis.” for “lipid quantification.”, “−2,” for “−2”, “(IBMX). Compounds of interest such as compound of formula (I) are applied from day −2 (confluence of the cells) until day 2 using various concentrations. Medium is renewed every other day. At day 2, medium consisting of DMEM, 10% FCS and 1 μg/ml insulin is added. From day 4 on, only DMEM containing 10% FCS is used for further cultivation of cells. […]” for “(IBMX).”
as §2

[3] = tested on: CCAAT enhancer binding protein α (C/EBPα); experiment: Real Time-PCR, expression of differentiation marker C/EBPα in 3T3-L1-cells; format: cell-based, mouse; details: fold induction compared to hormone mix stimulation (set equal to one)
Experimental: as §1, with “12-well” for “48-well”, “gene expression analysis.” for “lipid quantification.”, “−2,” for “−2”, “(IBMX). Compounds of interest such as compound of formula (I) are applied from day −2 (confluence of the cells) until day 2 using various concentrations. Medium is renewed every other day. At day 2, medium consisting of DMEM, 10% FCS and 1 μg/ml insulin is added. From day 4 on, only DMEM containing 10% FCS is used for further cultivation of cells. […]” for “(IBMX).”
as §2

[4] = tested on: fatty acid binding protein 4 (FABP4); experiment: Real Time-PCR, expression of differentiation marker FABP4 in 3T3-L1-cells; format: cell-based, mouse; details: fold induction compared to hormone mix stimulation (set equal to one)
Experimental: as §1, with “12-well” for “48-well”, “gene expression analysis.” for “lipid quantification.”, “−2,” for “−2”, “(IBMX). Compounds of interest such as compound of formula (I) are applied from day −2 (confluence of the cells) until day 2 using various concentrations. Medium is renewed every other day. At day 2, medium consisting of DMEM, 10% FCS and 1 μg/ml insulin is added. From day 4 on, only DMEM containing 10% FCS is used for further cultivation of cells. […]” for “(IBMX).”
as §2

[5] = tested on: Preadipocyte factor 1 (Pref1); experiment: Real Time-PCR, expression of preadipocytes marker Pref-1 in 3T3-L1-cells; format: cell-based, mouse; details: relative to hormone mix stimulation (set equal to one)
Experimental: as §1, with “12-well” for “48-well”, “gene expression analysis.” for “lipid quantification.”, “−2,” for “−2”, “(IBMX). Compounds of interest such as compound of formula (I) are applied from day −2 (confluence of the cells) until day 2 using various concentrations. Medium is renewed every other day. At day 2, medium consisting of DMEM, 10% FCS and 1 μg/ml insulin is added. From day 4 on, only DMEM containing 10% FCS is used for further cultivation of cells. […]” for “(IBMX).”
as §2

[6] = tested on: 3T3-L1-cells (mouse embryonic fibroblast-like preadipocytes cell line); experiment: Lipolysis assay (in vitro), free glycerol in supernatant; format: cell-based; details: for Relative lipolysis compared to basal lipolysis: added at day 10 for 20 hours, basal lipolysis = 100%
Experimental: 3T3-L1-cells (mouse embryonic fibroblast-like preadipocytes cell line) were propagated in Dulbecco's Modified Eagle Medium (DMEM), enriched with 10% newborn calf serum (CS) at 37° C. and 5% CO2 and seeded in 48-well plates for lipolysis. After reaching confluence at day −2 the differentiation was induced by changing medium at day 0 to DMEM with 10% fetal calf serum (FCS) containing a hormone mix (HM) of 1 μg/ml insulin, 0.25 μM dexamethasone (Dex) and 0.5 mM 3-isobutyl-1-methylxanthine (IBMX). Medium is renewed every other day. At day 2, medium consisting of DMEM, 10% FCS and 1 μg/ml insulin is added. From day 4 on, only DMEM containing 10% FCS is used for further cultivation of cells. For determination of lipolysis, compounds of interest are added at day 10 for 20 hours mixed with bovine serum albumin (BSA). If lipolysis occurs, cells secrete glycerol into the supernatant. Therefore, supernatants are harvested and determination of lipolysis is performed by using a free glycerol reagent. The quantification of the free glycerol is carried out on the basis of an enzymatic method with a free glycerol reagent.
The lipolysis in the presence of the test substances is calculated according to the following equation:
[formula] wherein • A test substance=absorption of the wells with test substance and with cells • A control=absorption of the wells without test substance, but with cells • A control without cells=absorption of the wells without test substance and without cells

Cyclooxygenase-2 (COX-2) = target: T1, Cyclooxygenase-2 (COX-2) (Homo sapiens, UniProt P35354); experiment: COX-2-Assay (in vitro), fluorometric ADHP/resorufin; format: biochemical; details: average of at least 2 independent experiments
T1 sequence (P35354 18-604): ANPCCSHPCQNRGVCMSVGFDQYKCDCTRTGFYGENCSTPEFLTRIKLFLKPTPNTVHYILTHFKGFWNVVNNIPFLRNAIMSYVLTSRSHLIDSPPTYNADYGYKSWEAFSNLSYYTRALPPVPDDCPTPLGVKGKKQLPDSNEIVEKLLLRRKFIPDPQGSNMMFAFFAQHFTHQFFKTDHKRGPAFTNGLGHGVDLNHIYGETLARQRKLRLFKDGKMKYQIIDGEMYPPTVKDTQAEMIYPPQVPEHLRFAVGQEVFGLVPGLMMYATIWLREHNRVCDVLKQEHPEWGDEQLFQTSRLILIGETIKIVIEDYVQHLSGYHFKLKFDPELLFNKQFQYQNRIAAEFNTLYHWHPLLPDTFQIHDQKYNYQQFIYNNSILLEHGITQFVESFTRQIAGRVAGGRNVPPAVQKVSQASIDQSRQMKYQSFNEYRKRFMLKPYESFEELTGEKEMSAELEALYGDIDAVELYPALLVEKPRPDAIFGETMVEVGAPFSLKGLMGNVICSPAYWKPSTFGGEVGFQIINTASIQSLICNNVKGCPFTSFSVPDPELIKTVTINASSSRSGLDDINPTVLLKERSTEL
From the text: Cyclooxygenase-2 (COX-2) in the presence of test substance is mixed with the fluorometric substrate 10-acetyl-3,7-dihydroxyphenoxanin (ADHP) and Heme. The reaction is started by addition of the substrate arachidonic acid.
COX-2 converts the arachidonic acid into the prostaglandin endoperoxide G2 (PGG2). PGG2 is reduced to the corresponding alcohol PGH2. During this reaction ADHP results in fluorescent resorufin. Resorufin is quantified at an extinction wavelength of 535 nm and an emission wavelength of 590 nm.
[formula] where • Resorufin test substance=Resorufin concentration of the wells with test substance and with COX-2 • Resorufin control=Resorufin concentration of the wells without test substance, but with COX-2 • Resorufin control without COX-2=Resoruf in concentration of the wells without test substance and without COX-2
From the inhibition of the COX-2[%] in a series of dilutions of tested samples the IC50 is calculated. This is the concentration at which the activity of the COX-2 is inhibited by 50%.

[7] = ABTS-Assay (in vitro), anti-oxidative capacity; details: photometric at 734 nm, average of at least 2 independent experiments
Experimental: With the help of the ABTS-assay the anti-oxidative capacity of test substances is measured. 2,2′-azino bis-(3-ethylbenzothiazoline 6-sulfonic acid) (ABTS) is transformed by potassium persulfate into the blue-green radical cation ABTS•+. Through the addition of antioxidants (test substance) the radical cations are reduced and discoloration takes place, which is determined photometrically at 734 nm.
[formula] A test substance=absorption of the wells with test substance • A control=absorption of the wells without test substance
From the inhibition of the radical formation [%] in a series of dilutions of tested samples the IC50 is calculated. This is the concentration at which the radical formation is inhibited by 50%.

IC50 calculated from the inhibition of COX-2 (Cyclooxygenase-2 (COX-2)): 12.3 ppm
IC50 calculated from the inhibition of radical formation [7]: 11.0 ppm
SMILES: CCCc1cc(OC)c2c(c1)C(C)C(c1ccc(O)c(OC)c1)O2 (centres unmarked) [compound of formula (I), 2-Methoxy-4-(7-methoxy-3-methyl-5-propyl-2,3-dihydro-benzofuran-2-yl)-phenol]
Stimulation of adipogenesis ([1]; 0.01 μM): 18
Stimulation of adipogenesis ([1]; 0.1 μM): 30
Stimulation of adipogenesis ([1]; 0.25 μM): 35
Stimulation of adipogenesis ([1]; 0.5 μM): 38
Stimulation of adipogenesis ([1]; 0.75 μM): 48
Stimulation of adipogenesis ([1]; 1 μM): 49
Stimulation of adipogenesis ([1]; 2.5 μM): 48
Stimulation of adipogenesis ([1]; 5 μM): 37
Stimulation of adipogenesis ([1]; 10 μM): 22
Stimulation of expression at day 2, PPARγ2 ([2]; 1 μM): 1.0
Stimulation of expression at day 2, PPARγ2 ([2]; 10 μM): 1.5
Stimulation of expression at day 2, Adiponectin (adiponectin; 1 μM): 1.4
Stimulation of expression at day 2, Adiponectin (adiponectin; 10 μM): 2.2
Stimulation of expression at day 2, C/EBPα ([3]; 1 μM): 1.1
Stimulation of expression at day 2, C/EBPα ([3]; 10 μM): 2.2
Stimulation of expression at day 2, FABP4 ([4]; 1 μM): 2.1
Stimulation of expression at day 2, FABP4 ([4]; 10 μM): 3.3
Relative expression at day 2, Pref-1 ([5]; 1 μM): 0.3
Relative expression at day 2, Pref-1 ([5]; 10 μM): 0.7
Relative lipolysis compared to basal lipolysis ([6]; 1 μM): 85% ± 1.6
Relative lipolysis compared to basal lipolysis ([6]; 10 μM): 85% ± 1.5

SMILES: C[C@H]1CC[C@@]2(OC1)O[C@H]1C[C@H]3[C@@H]4CC[C@@H]5C[C@@H](O)CC[C@]5(C)[C@H]4CC[C@]3(C)[C@H]1[C@@H]2C [sarsasapogenin, reference compound]
Stimulation of adipogenesis ([1]; 10 μM): 27
Stimulation of adipogenesis ([1]; 20 μM): 17
Effect on adipogenesis (in words) ([1]; experiments have shown): stimulating the adipogenesis
Relative lipolysis compared to basal lipolysis ([6]; 10 μM): 99% ± 3.3
Relative lipolysis compared to basal lipolysis ([6]; 20 μM): 106% ± 3.5
Effect on lipolysis in differentiated adipocytes (in words) ([6]; experiments have shown): no effect on the lipolysis
